Reference: patent US20160228586A1, “Compounds and Their Use for Preparation of Tau Imaging Agents and Tau Imaging Formulations” (ELI LILLY AND COMPANY, priority 2013, published 2016)

Tests used:
native tau aggregates = assay: Film autoradiography of AD brain tissue sections; format: binding, human
Protocol: Film autoradiography of AD Brain Tissue Sections are performed in a manner consistent with previously published methods (See Zhang, W., et al. F-18 stilbenes as PET imaging agents for detecting beta-amyloid plaques in the brain. Journal of Medicinal Chemistry, 48: 5980-5988, 2005, Zhang, W., et al. F-18 stilbenes as PET imaging agents for amyloid plaque imaging. Nucl Med Biol. 2007 34(1):89-97.)
Postmortem AD diagnosed human brain sections (frontal lobe, 10 um) are covered with 0.5 ml of [^18F]T807 (in 2.5:2.5:95=DMSO:ethanol:1X-phospate buffered saline (PBS), about 20 uCi of [^18F]T807 per slide, and incubated for 60 minutes at room temperature. Then successive washing cycles are employed with 2 minutes of 1× PBS, 2 minutes of 30% ethanol/1× PBS, 2 minutes of 70% ethanol/1× PBS, and 2 minutes 1× PBS, to remove any unbound tracer. After drying under a fume hood, the sections are put on a FujiFilm radio-sensor cassette and exposed over night. The autoradiography signal is recorded in the radio-sensor sheet and is read/visualized with the FujiFilm Bio-Imaging System FLA-7000. Autoradiographic visualization of tau is observed in gray matter of postmortem AD brain tissue. See FIG. 2 which illustrates [^18F]T807 labeling of tau in post-mortem frontal lobe sections (10 um) of tau-positive human brain tissue from patients with AD, approximately 20 uCi of [^18F]T807 per slide. Strong autoradiography signal of [^18F]T807 is observed on the grey matter (GM) region, and the presence of tau in these regions are confirmed by tau-immunostaining. The non-specific or background [^18F]T807 signal is shown in the white matter region (WM) and is low.

PHF-tau = details: cited from Alzheimer's & Dementia 2013; cited from earlier work
[1] = Solubility of precursor in DMSO; format: physicochemical; details: no sonication or heating required
Text: The solubility of the precursor compound affects the ability of the compound to get into solution so that a reaction to produce [^18F]T807 can effectively occur.

In the case of `Fc1ccc(-c2ccc3c(c2)[nH]c2ccncc23)cn1` [Example T807, 7-(6-fluoro-3-pyridyl)-5H-pyrido[4,3-b]indole, reference compound], the “blocking of the [18F]T807 autoradiography signal (specificity for native tau aggregates)” value (native tau aggregates; 1 uM of cold T807, human AD brain sections) is reported as “blocking effect”.

For `[18F]c1ccc(-c2ccc3c(c2)[nH]c2ccncc23)cn1` [[^18F]T807, 7-(6-[^18F]fluoro-3-pyridyl)-5H-pyrido[4,3-b]indole], the “non-specific or background signal in the white matter region (WM)” value (native tau aggregates; post-mortem frontal lobe sections (10 um) of tau-positive human AD brain, about 20 uCi per slide) is given as “low”, the “autoradiography signal on the grey matter (GM) region” value (native tau aggregates; post-mortem frontal lobe sections (10 um) of tau-positive human AD brain, about 20 uCi per slide, 60 minutes at room temperature) is given as “Strong” and the “affinity and selectivity to PHF-tau” value (PHF-tau) is given as “high”.

With `CC(C)(C)OC(=O)n1c2ccncc2c2ccc(-c3ccc([N+](C)(C)C)nc3)cc21.Cc1ccc(S(=O)(=O)[O-])cc1` [formula Ia, 5-(5-(tert-butoxycarbonyl)-5H-pyrido[4,3-b]indol-7-yl)-N,N,N-trimethylpyridin-2-aminium 4-methylbenzenesulfonate] the “solubility in DMSO” value [1] was “readily soluble”.
